What is called EC50 is the concentration at which the effect is half-maximal. A high value points to a need for much substance. For orientation: IC50 means the concentration at which inhibition is half-maximal.

Results on two compounds are retold here after article PMC8752837, “Structural basis of BAK activation in mitochondrial apoptosis initiation” (Nature Communications, 2022).

For one test, the system named is V74A(1) BAK. As to the kind of experiment: Liposome permeabilization assay: BH3 peptide activation of V74A(1) BAK receptor. It counts as biochemical, human. The note with it: Suppl. Figs. 3e, 4d. As for the experimental part: (§1) We performed liposome permeabilization assays as previously described[43]-[46]. […] We mixed the lipid film in ANTS/DPX solution by vortexing and sonication (~15 min) followed by extrusion through polycarbonate membrane of 2 μm pore size (Avanti Polar lipids) to generate homogenous large unilamellar vesicles (LUVs). We separated LUVs from free ANTS/DPX by S500 size exclusion chromatography and stored them at 4 °C in the dark. We prepared peptide and protein dilutions in 96-well black flat bottom plates (Costar) kept on ice. […] We quantified liposome permabilization by integrating area under curve (AUC) of normalized traces based on the Simpson's equation, and analyzed that data in Excel and GraphPad Prism. AUC measurements reflect the kinetic and extent of liposome permeabilization and provide quantitative means for comparison between different experimental conditions (e.g., BAK mutants with gross or partial variation in activity). Variability in permeabilization of different liposomes is common and our analyses compare among conditions investigated with the same liposomes. Although the absolute permeabilization values may differ, the trends for the same conditions are always very similar between different liposomes.

A further test addresses T1, D83A(s) BAK (Homo sapiens, UniProt Q16611, D83A).
T1 construct: C-terminus truncated recombinant human BAK containing C-terminal 6× histidine tag (MEAS-BAK); made in house; host or cells: E. coli T7 Express pLac I/Y
T1 sequence (Q16611 1-186 D83A limits assumed): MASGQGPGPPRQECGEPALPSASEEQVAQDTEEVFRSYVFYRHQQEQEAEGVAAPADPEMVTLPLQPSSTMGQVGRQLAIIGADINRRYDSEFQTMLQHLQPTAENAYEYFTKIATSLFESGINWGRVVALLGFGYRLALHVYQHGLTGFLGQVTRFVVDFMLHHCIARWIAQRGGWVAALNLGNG
Put plainly: Liposome permeabilization assay: BH3 peptide activation of D83A(s) BAK receptor. The conditions noted are these: for liposome permeabilization by 50 nM D83A(s) BAK receptor: 50 nM mutant BAK, Suppl. Fig. 4f; for EC50: EC50 of liposome permeabilization by 200 nM D83A(s) BAK, 200 nM D83A(s) BAK, Suppl. Fig. 3e, 4e. The class given is biochemical. As to the method:
as §1

The target in a further test is T2, Human BAK-∆TM-His6 (BAK) (Homo sapiens, UniProt Q16611).
T2 construct: C-terminus truncated recombinant human BAK containing C-terminal 6× histidine tag (MEAS-BAK); made in house; host or cells: E. coli T7 Express pLac I/Y
T2 sequence (Q16611 1-186 limits assumed): T1 sequence (Q16611 1-186 D83A limits assumed) with A83D
The conditions noted are these: ref Moldoveanu et al NSMB (2013) 20:589; cited from earlier work. The text has this: page 33: helix 1 to be important, and the idea that this could be achieved through somewhat different molecular interactions is neither surprising nor novel. We appreciate the reviewer’s viewpoint but respectfully disagree. We clarify the distinction between W(3)W(5) BID BH3 and BIM-h3Pc-RT inactivated complexes by explaining that stabilization of helix 1 is through indirect contacts in the former (allosteric) and through direct contact in the latter “glue-like” complex. This distinction is now discussed in the highlighted region on pg. 16 being key for the design of small molecule BH3 mimetic ...

A further test addresses T3, I81R BAK (Homo sapiens, UniProt Q16611, I81R).
T3 construct: To generate tevBAK (residues 22–186), we cleaved off the histidine tag with TEV protease; His tag (vector pNIC28-Bsa4) (N, cleaved yes); made in house; host or cells: E. coli T7 Express pLac I/Y
T3 sequence (Q16611 22-186 I81R): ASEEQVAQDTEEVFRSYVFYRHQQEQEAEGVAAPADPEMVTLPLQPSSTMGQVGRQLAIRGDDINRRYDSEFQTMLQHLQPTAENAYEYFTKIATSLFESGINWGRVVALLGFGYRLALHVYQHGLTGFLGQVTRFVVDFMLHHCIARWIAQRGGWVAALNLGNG
As to the kind of experiment: Isothermal titration calorimetry with mutant BAK. The class given is binding. The note with it: KD could not be obtained by ITC or SPR. As to the method:
Protein samples were exchanged into 20 mM HEPES, 100 mM NaCl and 1 mM TCEP prior to the experiment. Titrations were performed by first injecting 0.5 μl of 250 or 500 µM BID BH3 peptides into a solution of 20 or 50 µM BAK followed by additional 2 μl injections. […] Results were analyzed using Origin software (OriginLab) provided by MicroCal. Binding constants (KD) and thermodynamic parameters were calculated from the average of two or three individual titrations by fitting the data to a single site binding model using a nonlinear least-squares fitting algorithm.
(In general: Isothermal titration calorimetry measures the heat released or taken up as one component is titrated into another.)

In another test the target is T4, GST-BAK (Homo sapiens, UniProt Q16611).
T4 construct: made in house
T4 sequence (Q16611 1-211): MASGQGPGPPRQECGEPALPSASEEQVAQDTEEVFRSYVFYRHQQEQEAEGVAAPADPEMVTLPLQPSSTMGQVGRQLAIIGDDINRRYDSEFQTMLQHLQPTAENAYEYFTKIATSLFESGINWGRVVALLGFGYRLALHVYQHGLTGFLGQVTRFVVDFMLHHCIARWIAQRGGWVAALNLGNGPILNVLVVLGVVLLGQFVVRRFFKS
As to the kind of experiment: Competitive fluorescence polarization assay (displacement of BID BH3 SAHB-F). It counts as binding. The note with it: competitive FP. The text has this: We also tested the monosubstituted peptides in competitive fluorescence polarization (FP) binding assays, which measure displacement from GST-BAK of BID BH3 stabilized alpha helix of BCL-2 proteins (SAHB) C-terminally tagged with fluorescein and thus informs on peptide binding affinity.
We carried out fluorescence polarization assays, measuring the displacement of the fluorescent peptide BID BH3 SAHB-F from GST-BAK, in 384-well Greiner black polystyrene plates with flat bottom (Sigma-Aldrich). Master mix consisted of 50 mM Tris-HCl pH 7.5, 50 mM KCl, 0.1 mg/mL BSA, 2 mM DTT, 0.005% Tween-20, 10 nM BID BH3 SAHB-F, and 1 µM GST-BAK. We pin transferred peptides using Biomek FX (Beckman Coulter Life Sciences, IN) to achieve final concentration of 500−0.2 µM in 20 µL final volume. We gently centrifuged plates to remove air bubbles for 1 min at 1000 rpm, and incubated them for 60 min at RT. […] Free peptide controls in each plate consisted of only BID BH3 SAHB-F and bound peptide controls containing BID BH3 SAHB-F + GST-BAK. We derived Z’-values using the equation [1 − 3(stdev^L + stdev^H)]/(average^H − average^L), where L is the free peptide control and H is the bound peptide control. […] We processed and visualized data using the software Robust Investigation of Screening Experiments (RISE) developed in house in the Pipeline Pilot platform (Accelrys, v.8.5.0). We performed at least three independent dose-response experiments for each peptide. We estimated IC50 values in RISE and GraphPad Prism v.8.0a.

Substitutions are numbered along the chain they refer to. “And” between values parts separate entries of the source, which are not always exact repeats. Identical values can stand only once. Like-named read-outs stand apart in the source and are kept apart here.

As for `CC[C@H](C)[C@H](NC(=O)[C@H](CO)NC(=O)[C@H](CCCNC(=N)N)NC(=O)[C@H](CC(=O)O)NC(=O)[C@H](CCSC)NC(=O)[C@H](CO)NC(=O)[C@H](CC(=O)O)NC(=O)CNC(=O)[C@@H](NC(=O)[C@H](CCC(N)=O)NC(=O)[C@H](C)NC(=O)[C@H](CC(C)C)NC(=O)[C@H](Cc1c[nH]cn1)NC(=O)[C@H](CCCNC(=N)N)NC(=O)[C@H](C)NC(=O)[C@@H](NC(=O)[C@H](CC(N)=O)NC(=O)[C@H](CCCNC(=N)N)NC(=O)[C@@H](NC(=O)[C@@H](NC(=O)[C@H](CC(=O)O)NC(=O)[C@H](CCC(=O)O)NC(C)=O)[C@@H](C)CC)[C@@H](C)CC)[C@@H](C)CC)C(C)C)C(N)=O` [WT BID BH3, reference compound], the “peptide concentration at which ligands activate V74A(1) BAK” value in the test on V74A(1) BAK is recorded as “above 1 µM”. Also, on D83A(s) BAK, the “liposome permeabilization by 50 nM D83A(s) BAK receptor” value is reported as “neither peptide ligands could promote liposome permeabilization”. Besides, the EC50 at D83A(s) BAK was 4 to 7 µM and 5 to 7 µM. Further, at Human BAK-∆TM-His6 (BAK), the “fold less potent than activated full-length BID (N/C BID)” value is ~ 100 x. Further, at I81R BAK, the “affinity for I81R BAK extrapolated by applying 2-fold difference compared to WT” value was ~ 130 µM. Moreover, the IC50 was 12.73 µM at GST-BAK (Experiment-1); 6.926 µM on GST-BAK (Experiment-2); 15.45 µM at GST-BAK (Experiment-3); 8.804 µM at GST-BAK (Experiment-4); 11 µM on GST-BAK (Experiment-5); 9.271 µM on GST-BAK (Experiment-6). The IC50 was determined as 11.57 µM at GST-BAK (Experiment-7); 22.17 µM on GST-BAK (Experiment-9); 12.2 µM on GST-BAK (mean of the experiments (replicated 4-9 times), read-out: IC50 Mean).
Turning to `CC[C@H](C)[C@H](NC(=O)[C@H](C)NC(=O)[C@H](CC(C)C)NC(=O)[C@H](CCC(N)=O)NC(=O)[C@H](CCCNC(=N)N)NC(=O)CNC(=O)[C@@H](NC(=O)[C@H](CCC(N)=O)NC(=O)CNC(=O)[C@H](CCSC)NC(=O)[C@@H](NC(=O)[C@H](CO)NC(=O)[C@H](CO)NC(C)=O)[C@@H](C)O)C(C)C)C(=O)N[C@H](C(=O)NCC(=O)N[C@@H](CC(=O)O)C(=O)N[C@@H](CC(=O)O)C(=O)N[C@H](C(=O)N[C@@H](CC(N)=O)C(=O)N[C@@H](CCCNC(=N)N)C(=O)N[C@@H](CCCNC(=N)N)C(=O)N[C@@H](Cc1ccc(O)cc1)C(N)=O)[C@@H](C)CC)[C@@H](C)CC` [WT BAK BH3], the “peptide concentration at which ligands activate V74A(1) BAK” value in the test with V74A(1) BAK is “above 1 µM”. Further, on D83A(s) BAK, the “liposome permeabilization by 50 nM D83A(s) BAK receptor” value is recorded as “neither peptide ligands could promote liposome permeabilization”; the EC50 is 4 to 7 µM and 5 to 7 µM. Besides, the “affinity for I81R BAK extrapolated by applying 2-fold difference compared to WT” value on I81R BAK is recorded as ~ 130 µM.
